{"source": "paper PMC10820861", "about": "“Furofuranoid-Type Lignans and Related Phenolics from Anisacanthus virgularis (Salisb.) Nees with Promising Anticholinesterase and Anti-Ageing Properties: A Study Supported by Molecular Modelling” (Plants, 2024)", "key": {"TERT": {"tested_on": "TERT", "test": "TERT enzyme (telomerase activation) assay in normal melanocyte HFB4 cells", "format": "cell-based, human", "settings": "1 μM; for TERT Concentration Mean ± SD / Relative Increase (TERT vs untreated HFB4 control): 24 h; for Relative Increase (TERT vs untreated HFB4 control): control = 1", "method": "In the present study, we assessed the in vitro anti-ageing activity of the lignan-type compounds 1–5 utilizing a TERT enzyme assay (Table 3). The normal melanocyte cell line (HFB4) was used as a model system in this study, and curcumin (1 μM) was used as a standard telomerase activator [47]. According to the report, curcumin has made it possible for model organisms to live longer, reduced the signs of ageing, and slowed the onset of age-related illnesses where cellular senescence is a direct cause.\nTERT activity assay was used for in vitro investigation of the compound’s anti-ageing properties. The HFB4 (VACSERA, Giza, Egypt) was used as a model system for the study of amplification of telomers in response to our test compounds and curcumin. HFB4 cells were cultivated in RPMI-1640 medium enriched with heat-inactivated FBS (10%) and penicillin–streptomycin (100 U/mL). HFB4 cells (2 × 10^5) were plated and incubated in a 5% CO2 humidified atmosphere at 37 °C for 24 h. The cells were then left untreated (negative control), treated with tested compounds and with 1 μM curcumin, a standard activator for TERT. The supernatant from the various conditions was collected after 24 h, centrifuged for 20 min at 1000× g at 4 ℃, and immediately submitted for the assay as previously described. The different supernatants were added separately to a microtiter plate pre-coated with a TERT-specific antibody (Ab) and then incubated with a TERT-specific biotin detection Ab. Then, streptavidin/horseradish peroxidase (SABC) conjugate was added to all wells and incubated. […] The optical density (OD) was measured spectrophotometrically at 450 nm. The TERT concentration was determined by comparing the OD of the samples with the standard curve prepared according to the instructions of the manufacturer. The relative OD450 = (OD450 of the reaction well) − (OD450 of no treatment well). The standard curve was plotted by drawing the relative OD450 of each standard solution (Y) versus the respective concentration of the standard solution (X). The human TERT concentration of the samples was interpolated from the standard curve."}, "acetylcholinesterase": {"tested_on": "acetylcholinesterase", "settings": "concentration-dependent; cited from earlier work"}, "[1]": {"tested_on": "hippocampal long-term potentiation", "parameters": "method as in PMID 30685474", "settings": "50 μM; cited from earlier work"}, "neuro2a cells": {"tested_on": "neuro2a cells", "parameters": "method as in PMID 30685474", "settings": "cited from earlier work"}, "memory decline": {"tested_on": "memory decline", "settings": "25 mg/kg, p.o.; dose-dependent; cited from earlier work"}, "AChE": {"biological_target": "T1, AChE (Electrophorus electricus, UniProt O42275)", "T1 construct": "purchased", "T1 sequence (O42275 24-633)": "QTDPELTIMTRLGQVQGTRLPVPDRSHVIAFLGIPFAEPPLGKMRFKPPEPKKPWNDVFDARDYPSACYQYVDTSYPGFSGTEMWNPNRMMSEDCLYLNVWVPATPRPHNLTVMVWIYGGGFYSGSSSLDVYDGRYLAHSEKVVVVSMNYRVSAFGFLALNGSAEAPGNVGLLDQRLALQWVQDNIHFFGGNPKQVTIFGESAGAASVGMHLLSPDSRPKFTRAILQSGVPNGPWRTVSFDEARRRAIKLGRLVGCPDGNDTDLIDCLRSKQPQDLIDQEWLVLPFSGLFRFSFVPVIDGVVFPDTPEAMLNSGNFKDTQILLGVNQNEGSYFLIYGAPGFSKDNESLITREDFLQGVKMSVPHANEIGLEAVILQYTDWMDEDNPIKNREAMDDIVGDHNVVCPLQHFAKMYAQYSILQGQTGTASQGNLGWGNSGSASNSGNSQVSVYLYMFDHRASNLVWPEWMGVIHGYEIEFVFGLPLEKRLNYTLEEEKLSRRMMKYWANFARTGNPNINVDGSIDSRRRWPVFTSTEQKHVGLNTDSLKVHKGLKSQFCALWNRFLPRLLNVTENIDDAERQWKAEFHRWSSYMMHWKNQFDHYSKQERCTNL", "test": "biochemical", "settings": "for IC50 / % Inhibition of AChE: mean ± SD; for inhibition at 0.01 µM / inhibition at 0.1 µM / inhibition at 1 µM / inhibition at 10 µM: read-out: % Inhibition of AChE", "method": "The preparation of the sample was the same as has been previously described. The AChE-inhibitory effect of the furofuranoid lignans 1–5 was determined using an AChE inhibitor screening kit (the Quanti-Chrome assay kit). […] The 96-well plate reaction was prepared according to the manufacturer’s protocol."}, "AChE enzyme": {"tested_on": "AChE enzyme", "parameters": "method as in doi:10.25135/rnp.71.17.04.074", "settings": "250 µg/mL; cited from earlier work"}, "[2]": {"tested_on": "butyrylcholinesterase enzyme", "parameters": "method as in doi:10.25135/rnp.71.17.04.074", "settings": "250 µg/mL; cited from earlier work"}, "[3]": {"settings": "read-out: IC50 (AChE inhibition)"}}, "note": "“And” between values parts separate entries of the source, which are not always exact repeats. Equal values may be shown once. Read-outs that look alike come from different tables or passages of the source.", "data": [{"molecule": "COc1cc([C@H]2OC[C@H]3[C@@H]2CO[C@@H]3c2ccc(O)c(OC)c2)ccc1O", "note": "(relative stereo) [Compound 2, pinoresinol]", "values": [{"measurement": "increase in telomerase activity compared to untreated cells", "setting": "TERT", "value": "a little weak"}, {"measurement": "TERT Concentration Mean ± SD", "setting": "TERT", "value": "2.2 ± 0.03", "unit": "ng/mL"}, {"measurement": "Relative Increase (TERT vs untreated HFB4 control)", "setting": "TERT", "value": 1.28}, {"measurement": "effect on acetylcholinesterase activity", "setting": "acetylcholinesterase", "value": "inhibited the activity of acetylcholinesterase in a concentration-dependent manner"}, {"measurement": "effect on induction of hippocampal long-term potentiation", "setting": "[1]", "value": "aided the induction of hippocampal long-term potentiation"}, {"measurement": "effect on calcium influx", "setting": "neuro2a cells", "value": "aided calcium influx into neuro2a cells"}, {"measurement": "effect on memory decline in dementia model", "setting": "memory decline", "value": "improved memory decline"}, {"measurement": "IC50", "setting": "AChE; IC50 (AChE inhibition)", "value": "292 ± 9", "unit": "nM"}, {"measurement": "inhibition at 0.01 µM", "setting": "AChE", "value": "26 ± 1", "unit": "%"}, {"measurement": "inhibition at 0.1 µM", "setting": "AChE", "value": "41 ± 1", "unit": "%"}, {"measurement": "inhibition at 1 µM", "setting": "AChE", "value": "60 ± 3", "unit": "%"}, {"measurement": "inhibition at 10 µM", "setting": "AChE", "value": "75 ± 2", "unit": "%"}]}, {"molecule": "COc1cc([C@H]2OC[C@H]3[C@@H]2CO[C@@H]3c2ccc(O[C@@H]3O[C@H](CO)[C@@H](O)[C@H](O)[C@H]3O)c(OC)c2)ccc1O", "note": "[Compound 5, pinoresinol 4-O-β-D-glucoside]", "values": [{"measurement": "increase in telomerase activity compared to untreated cells", "setting": "TERT", "value": 1.66, "unit": "fold"}, {"measurement": "TERT Concentration Mean ± SD", "setting": "TERT", "value": "2.8 ± 0.09", "unit": "ng/mL"}, {"measurement": "Relative Increase (TERT vs untreated HFB4 control)", "setting": "TERT", "value": 1.66}, {"measurement": "inhibitory effect on the AChE enzyme", "setting": "AChE enzyme", "value": "20.17 ± 0.44", "unit": "%"}, {"measurement": "inhibitory effect on the butyrylcholinesterase enzyme", "setting": "[2]", "value": "11.02 ± 0.35", "unit": "%"}, {"measurement": "IC50", "setting": "AChE; [3]", "value": "64.5 nM and 64 nM"}, {"measurement": "inhibition at 0.01 µM", "setting": "AChE", "value": "28 ± 3", "unit": "%"}, {"measurement": "inhibition at 0.1 µM", "setting": "AChE", "value": "59 ± 4", "unit": "%"}, {"measurement": "inhibition at 1 µM", "setting": "AChE", "value": "79 ± 1", "unit": "%"}, {"measurement": "inhibition at 10 µM", "setting": "AChE", "value": "88 ± 3", "unit": "%"}]}, {"molecule": "COc1cc([C@H]2OC[C@H]3[C@@H]2CO[C@H]3c2ccc(O)c(OC)c2)ccc1O", "note": "(relative stereo) [Compound 3, epipinoresinol]", "values": [{"measurement": "increase in telomerase activity compared to untreated cells", "setting": "TERT", "value": "a little weak"}, {"measurement": "TERT Concentration Mean ± SD", "setting": "TERT", "value": "2.0 ± 0.06", "unit": "ng/mL"}, {"measurement": "Relative Increase (TERT vs untreated HFB4 control)", "setting": "TERT", "value": 1.18}, {"measurement": "IC50", "setting": "AChE; IC50 (AChE inhibition)", "value": "242 ± 9", "unit": "nM"}, {"measurement": "inhibition at 0.01 µM", "setting": "AChE", "value": "23 ± 1", "unit": "%"}, {"measurement": "inhibition at 0.1 µM", "setting": "AChE", "value": "44 ± 1", "unit": "%"}, {"measurement": "inhibition at 1 µM", "setting": "AChE", "value": "60 ± 2", "unit": "%"}, {"measurement": "inhibition at 10 µM", "setting": "AChE", "value": "82 ± 3", "unit": "%"}]}, {"molecule": "COc1cc(/C=C/C(=O)CC(=O)/C=C/c2ccc(O)c(OC)c2)ccc1O", "note": "[Curcumin, curcumin, reference compound]", "values": [{"measurement": "increase in telomerase activity compared to untreated cells", "setting": "TERT", "value": 1.62, "unit": "fold"}, {"measurement": "TERT Concentration Mean ± SD", "setting": "TERT", "value": "2.8 ± 0.03", "unit": "ng/mL"}, {"measurement": "Relative Increase (TERT vs untreated HFB4 control)", "setting": "TERT", "value": 1.62}]}, {"molecule": "phillyrin [Compound 4]", "values": [{"measurement": "increase in telomerase activity compared to untreated cells", "setting": "TERT", "value": "1.72 fold and 1.71 fold"}, {"measurement": "TERT Concentration Mean ± SD", "setting": "TERT", "value": "2.9 ± 0.06", "unit": "ng/mL"}, {"measurement": "Relative Increase (TERT vs untreated HFB4 control)", "setting": "TERT", "value": 1.72}, {"measurement": "% Inhibition of AChE", "setting": "AChE; 0.01 µM", "value": "26 ± 3", "unit": "%"}, {"measurement": "% Inhibition of AChE", "setting": "AChE; 0.1 µM", "value": "41 ± 2", "unit": "%"}, {"measurement": "% Inhibition of AChE", "setting": "AChE; 1 µM", "value": "64 ± 2", "unit": "%"}, {"measurement": "% Inhibition of AChE", "setting": "AChE; 10 µM", "value": "73 ± 2", "unit": "%"}]}, {"molecule": "COc1cc([C@H]2OC[C@H]3[C@@H]2CO[C@@H]3c2cc(OC)c3c(c2)[C@H](CO)[C@@H](c2ccc(O[C@@H]4O[C@H](CO)[C@@H](O)[C@H](O)[C@H]4O)c(OC)c2)O3)ccc1O", "note": "[Compound 1, anisacanthin]", "values": [{"measurement": "increase in telomerase activity compared to untreated cells", "setting": "TERT", "value": 1.64, "unit": "fold"}, {"measurement": "TERT Concentration Mean ± SD", "setting": "TERT", "value": "2.8 ± 0.04", "unit": "ng/mL"}, {"measurement": "Relative Increase (TERT vs untreated HFB4 control)", "setting": "TERT", "value": 1.64}, {"measurement": "IC50", "setting": "AChE; [3]", "value": 85, "unit": "nM"}, {"measurement": "inhibition at 0.01 µM", "setting": "AChE", "value": "24 ± 1", "unit": "%"}, {"measurement": "inhibition at 0.1 µM", "setting": "AChE", "value": "61 ± 1", "unit": "%"}, {"measurement": "inhibition at 1 µM", "setting": "AChE", "value": "75 ± 2", "unit": "%"}, {"measurement": "inhibition at 10 µM", "setting": "AChE", "value": "83 ± 2", "unit": "%"}]}]}
